Test results published in patent US8192962B2, “Processes for detecting toxic substances” (Daikin Industries, Ltd., priority 2001, dated 2012).

Test system: Mitochondria-located protein genes
Assay: DNA chip mRNA expression in yeast, mitochondria-located protein genes (Table 2)
Format: cell-based, Saccharomyces cerevisiae S288C
Details: cells incubated two hours with the chemical substance
Outline: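 S. cerevisiae S288C grown at 25° C. in YPD to log phase, then exposed 2 h to a toxicant at a growth-inhibiting, non-lethal concentration; untreated cells as control. Poly(A) mRNA reverse-transcribed with Cy3-dUTP or Cy5-dUTP, hybridized >12 h at 65° C. to whole-genome yeast DNA chip; value = fluorescence ratio treated/untreated.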

Structure (SMILES): O=[N+]([O-])c1cc[n+]([O-])c2ccccc12 [(5), 4-nitroquinolin-N-oxide]
- The level of expressed mRNA in the presence of chemical substance/The level of expressed mRNA in the absence of chemical substance (yeast gene YAL039C): 1.1
- The level of expressed mRNA in the presence of chemical substance/The level of expressed mRNA in the absence of chemical substance (yeast gene YBL022C): 1.2
- The level of expressed mRNA in the presence of chemical substance/The level of expressed mRNA in the absence of chemical substance (yeast gene YBL030C): 0.7
- The level of expressed mRNA in the presence of chemical substance/The level of expressed mRNA in the absence of chemical substance (yeast gene YBL038W): 0.9
- The level of expressed mRNA in the presence of chemical substance/The level of expressed mRNA in the absence of chemical substance (yeast gene YBL099W): 1.0
- The level of expressed mRNA in the presence of chemical substance/The level of expressed mRNA in the absence of chemical substance (yeast gene YBR003W): 0.7
- The level of expressed mRNA in the presence of chemical substance/The level of expressed mRNA in the absence of chemical substance (yeast gene YBR044C): 1.4
- The level of expressed mRNA in the presence of chemical substance/The level of expressed mRNA in the absence of chemical substance (yeast gene YBR091C): 1.1
- The level of expressed mRNA in the presence of chemical substance/The level of expressed mRNA in the absence of chemical substance (yeast gene YBR122C): 1.5
- The level of expressed mRNA in the presence of chemical substance/The level of expressed mRNA in the absence of chemical substance (yeast gene YBR185C): 0.8
- The level of expressed mRNA in the presence of chemical substance/The level of expressed mRNA in the absence of chemical substance (yeast gene YBR221C): 1.3
- The level of expressed mRNA in the presence of chemical substance/The level of expressed mRNA in the absence of chemical substance (yeast gene YBR251W): 1.3
- The level of expressed mRNA in the presence of chemical substance/The level of expressed mRNA in the absence of chemical substance (yeast gene YBR282W): 1.0
- The level of expressed mRNA in the presence of chemical substance/The level of expressed mRNA in the absence of chemical substance (yeast gene YCL057W): 1.1
- The level of expressed mRNA in the presence of chemical substance/The level of expressed mRNA in the absence of chemical substance (yeast gene YCR046C): 1.0
- The level of expressed mRNA in the presence of chemical substance/The level of expressed mRNA in the absence of chemical substance (yeast gene YCR083W): 1.6
- The level of expressed mRNA in the presence of chemical substance/The level of expressed mRNA in the absence of chemical substance (yeast gene YDL067C): 2.0
- The level of expressed mRNA in the presence of chemical substance/The level of expressed mRNA in the absence of chemical substance (yeast gene YDL181W): 1.7
- The level of expressed mRNA in the presence of chemical substance/The level of expressed mRNA in the absence of chemical substance (yeast gene YDL198C): 0.7
- The level of expressed mRNA in the presence of chemical substance/The level of expressed mRNA in the absence of chemical substance (yeast gene YDR079W): 1.2
- The level of expressed mRNA in the presence of chemical substance/The level of expressed mRNA in the absence of chemical substance (yeast gene YDR178W): 0.9
- The level of expressed mRNA in the presence of chemical substance/The level of expressed mRNA in the absence of chemical substance (yeast gene YDR231C): 1.1
- The level of expressed mRNA in the presence of chemical substance/The level of expressed mRNA in the absence of chemical substance (yeast gene YDR258C): 1.3
- The level of expressed mRNA in the presence of chemical substance/The level of expressed mRNA in the absence of chemical substance (yeast gene YDR298C): 1.3
- The level of expressed mRNA in the presence of chemical substance/The level of expressed mRNA in the absence of chemical substance (yeast gene YDR347W): 0.8
- The level of expressed mRNA in the presence of chemical substance/The level of expressed mRNA in the absence of chemical substance (yeast gene YDR377W): 1.9
- The level of expressed mRNA in the presence of chemical substance/The level of expressed mRNA in the absence of chemical substance (yeast gene YDR529C): 1.2
- The level of expressed mRNA in the presence of chemical substance/The level of expressed mRNA in the absence of chemical substance (yeast gene YEL024W): 1.3
- The level of expressed mRNA in the presence of chemical substance/The level of expressed mRNA in the absence of chemical substance (yeast gene YEL039C): 0.9
- The level of expressed mRNA in the presence of chemical substance/The level of expressed mRNA in the absence of chemical substance (yeast gene YER178W): 0.7
- The level of expressed mRNA in the presence of chemical substance/The level of expressed mRNA in the absence of chemical substance (yeast gene YFL016C): 1.3
- The level of expressed mRNA in the presence of chemical substance/The level of expressed mRNA in the absence of chemical substance (yeast gene YGL018C): 1.1
- The level of expressed mRNA in the presence of chemical substance/The level of expressed mRNA in the absence of chemical substance (yeast gene YGL187C): 1.3
- The level of expressed mRNA in the presence of chemical substance/The level of expressed mRNA in the absence of chemical substance (yeast gene YGL191W): 0.9
- The level of expressed mRNA in the presence of chemical substance/The level of expressed mRNA in the absence of chemical substance (yeast gene YGR008C): 0.9
- The level of expressed mRNA in the presence of chemical substance/The level of expressed mRNA in the absence of chemical substance (yeast gene YGR028W): 0.9
- The level of expressed mRNA in the presence of chemical substance/The level of expressed mRNA in the absence of chemical substance (yeast gene YGR062C): 0.7
- The level of expressed mRNA in the presence of chemical substance/The level of expressed mRNA in the absence of chemical substance (yeast gene YGR076C): 0.9
- The level of expressed mRNA in the presence of chemical substance/The level of expressed mRNA in the absence of chemical substance (yeast gene YGR082W): 0.9
- The level of expressed mRNA in the presence of chemical substance/The level of expressed mRNA in the absence of chemical substance (yeast gene YGR174C): 1.0
- The level of expressed mRNA in the presence of chemical substance/The level of expressed mRNA in the absence of chemical substance (yeast gene YGR244C): 0.8
- The level of expressed mRNA in the presence of chemical substance/The level of expressed mRNA in the absence of chemical substance (yeast gene YHR008C): 0.6
- The level of expressed mRNA in the presence of chemical substance/The level of expressed mRNA in the absence of chemical substance (yeast gene YIL155C): 1.3
- The level of expressed mRNA in the presence of chemical substance/The level of expressed mRNA in the absence of chemical substance (yeast gene YJL096W): 1.9
- The level of expressed mRNA in the presence of chemical substance/The level of expressed mRNA in the absence of chemical substance (yeast gene YJL102W): 1.3
- The level of expressed mRNA in the presence of chemical substance/The level of expressed mRNA in the absence of chemical substance (yeast gene YJL133W): 0.9
- The level of expressed mRNA in the presence of chemical substance/The level of expressed mRNA in the absence of chemical substance (yeast gene YJL166W): 1.6
- The level of expressed mRNA in the presence of chemical substance/The level of expressed mRNA in the absence of chemical substance (yeast gene YJL180C): 1.5
- The level of expressed mRNA in the presence of chemical substance/The level of expressed mRNA in the absence of chemical substance (yeast gene YJR045C): 0.5
- The level of expressed mRNA in the presence of chemical substance/The level of expressed mRNA in the absence of chemical substance (yeast gene YJR077C): 0.9
